Source: patent US20050250677A1, “Glycopeptide antibiotic derivatives” (priority 2002, published 2005)
Like-named read-outs stand apart in the source and are kept apart here.

Assays:
HIV-1 (IIIB) = test: Inhibition of HIV-1 (IIIB)-induced cytopathicity (giant cell formation) in CEM cells; format: cell-based; conditions: read-out: EC50 HIV-1 (concentration required to inhibit HIV-induced giant cell formation by 50%); HIV-1, CEM cell cultures
Protocol: (§1) A variety of glycopeptide antibiotic derivatives of vancomycin, eremomycin and teicoplanin including their aglycon derivatives were evaluated for their inhibitory activity against HIV-1 (IIIB) and HIV-2(ROD) in CEM cell cultures.

HIV-2(ROD) = test: Inhibition of HIV-2 (ROD)-induced cytopathicity (giant cell formation) in CEM cells; format: cell-based; conditions: read-out: EC50 HIV-2 (concentration required to inhibit HIV-induced giant cell formation by 50%); HIV-2, CEM cell cultures
Protocol: as §1

FCV = test: Feline corona virus assay in Feline Crandel kidney cells (MTS); format: cell-based; conditions: for EC50: FCV in FCK cells, read-out: EC50 FCV
Protocol: Feline Crandel kidney cells were seeded in 96-well microtiter plates at 24,000 cells/well. Then, 24 hrs later, an appropriate inoculum of FCV is added together with 5-fold dilutions of the test compounds. After 4 days, a MTS/PMS solution was added to each well. Following a 90 min incubation period at 37° C., the optical density of the wells was read at 498 nm in a microplate reader.

FCK cells = conditions: read-out: CC50 FCK; FCK cells
murine leukemia L1210 = test: Cytostatic activity assay, L1210 cells; format: cell-based; conditions: read-out: IC50 L1210 (compound concentration required to inhibit tumor cell proliferation by 50%)
[1] = test system: human lymphocyte Molt4/clone 8; test: Cytostatic activity assay, Molt4/clone 8 cells; format: cell-based; conditions: read-out: IC50 Molt4/C8 (compound concentration required to inhibit tumor cell proliferation by 50%)
human lymphocyte CEM = test: Cytostatic activity assay, CEM cells; format: cell-based; conditions: read-out: IC50 CEM (compound concentration required to inhibit tumor cell proliferation by 50%)
VZV (wild-type strains) = test: Anti-VZV assay (wild-type strains): virus-induced cytopathicity in HEL cell cultures; format: cell-based, varicella-zoster virus; conditions: for EC50: HEL cell cultures
HEL cells [2] = conditions: anti-VZV table
HEL cells [3] = conditions: read-out: CC50 (HEL); HEL cells; anti-VZV table
[4] = VZV strain OKA, read-out: EC50 VZV (OKA)
[5] = VZV strain YS, read-out: EC50 VZV (YS)

SMILES	EC50 (HIV-1 (IIIB)) [µM]	EC50 (HIV-2(ROD)) [µM]	EC50 (FCV) [µM]	CC50 (FCK cells) [µM]	IC50 (murine leukemia L1210) [µM]	IC50 [1] [µM]	IC50 (human lymphocyte CEM) [µM]	activity against FCV (FCV)	activity against VZV (VZV (wild-type strains))	EC50 (VZV (wild-type strains); [4]) [µM]	EC50 (VZV (wild-type strains); [5]) [µM]	MTC (HEL) (HEL cells [2])	CC50 (HEL cells [3]) [µM]
NC(=O)CC1NC(=O)C(N)C(O)c2ccc(c(Cl)c2)Oc2cc3cc(c2O)Oc2ccc(cc2)C(O)C2NC(=O)C(NC(=O)C3NC1=O)c1ccc(O)c(c1)-c1c(O)cc(O)cc1C(C(=O)NCC13CC4CC(CC(C4)C1)C3)NC2=O (centres unmarked) [Compound 107]	5	3.5	40	> 300	–	–	–	–	–	–	–	–	–
CCCCc1ccc(CNC2C(Oc3c4cc5cc3Oc3ccc(cc3Cl)C(O)C3NC(=O)C(NC(=O)C5NC(=O)C5NC(=O)C(Cc6ccc(cc6)O4)NC(=O)C(NC)c4ccc(O)c(c4)Oc4cc(O)c(Cl)c5c4)c4ccc(O)c(c4)-c4c(cc(O)c(CN5CCN(Cc6ccc(-c7ccccc7)cc6)CC5)c4O)C(C(=O)NCCCN(C)C)NC3=O)OC(C(=O)NCCCN(C)C)C(O)C2O)cc1 (centres unmarked) [Compound 13]	3.5 ± 2.1	20	5.9	30	25 ± 0.7	35 ± 6.1	212 ± 54	pronounced activity	–	–	–	–	–
CCCCc1ccc(CNCc2c(O)cc3c(c2O)-c2cc(ccc2O)C2NC(=O)C4NC(=O)C5NC(=O)C(Cc6ccc(c(Cl)c6)Oc6cc4cc(c6O)Oc4ccc(cc4Cl)C(O)C(NC2=O)C(=O)NC3C(=O)NC)NC(=O)C(NC(=O)OC(C)(C)C)c2ccc(O)c(c2)Oc2cc(O)cc5c2)cc1 (centres unmarked) [Compound 47]	6 ± 1	12 ± 5.2	16	> 50	70 ± 23	> 100	> 100	–	–	–	–	–	–
CNC(=O)C1NC(=O)C2NC(=O)C(NC(=O)C3NC(=O)C(CC(N)=O)NC(=O)C(NC(=O)C(CC(C)C)NC)C(O)c4ccc(c(Cl)c4)Oc4cc3cc(c4O)Oc3ccc(cc3)C2O)c2ccc(O)c(c2)-c2c1cc(O)c(CN1CCN(Cc3ccc(-c4ccccc4)cc3)CC1)c2O (centres unmarked) [Compound 8]	4 ± 1.7	5.5 ± 0.7	–	–	> 100	> 100	> 100	–	pronounced activity	2.3	1.5	≧20 μM	> 50
NC(=O)CC1NC(=O)C(NC(=O)C(N)Cc2c[nH]c3ccccc23)C(O)c2ccc(c(Cl)c2)Oc2cc3cc(c2O)Oc2ccc(cc2)C(O)C2NC(=O)C(NC(=O)C3NC1=O)c1ccc(O)c(c1)-c1c(O)cc(O)cc1C(C(=O)O)NC2=O [Compound 109, N-(D-Trp)-(de-N-Me-D-Leu)eremomycin aglycon]	7.3 ± 0.58	42.5 ± 10.6	28	> 100	> 250	> 250	> 250	pronounced activity	–	–	–	–	–
NC(=O)CC1NC(=O)C(N)C(O)c2ccc(c(Cl)c2)Oc2cc3cc(c2O)Oc2ccc(cc2)C(O)C2NC(=O)C(NC(=O)C3NC1=O)c1ccc(O)c(c1)-c1c(O)cc(O)cc1C(C(=O)N1CCC3CCCCC3C1)NC2=O (centres unmarked) [Compound 108]	2.8	2	81	> 300	–	–	–	–	–	–	–	–	–
CNC(CC(C)C)C(=O)NC1C(=O)NC(CC(N)=O)C(=O)NC2C(=O)NC3C(=O)NC(C(=O)NC(C(=O)N4CCC5CCCCC5C4)c4cc(O)cc(O)c4-c4cc3ccc4O)C(O)c3ccc(cc3)Oc3cc2cc(c3O)Oc2ccc(cc2Cl)C1O (centres unmarked) [Compound 101]	63.3 ± 53.5	> 125	47	> 100	> 250	> 250	> 250	pronounced activity	–	–	–	–	–
CNC(CC(C)C)C(=O)NC1C(=O)NC(CC(N)=O)C(=O)NC2C(=O)NC3C(=O)NC(C(=O)NC(C(=O)NCC45CC6CC(CC(C6)C4)C5)c4cc(O)cc(O)c4-c4cc3ccc4O)C(O)c3ccc(cc3)Oc3cc2cc(c3O)Oc2ccc(cc2Cl)C1O (centres unmarked) [Compound 99]	1.6 ± 0.36	7	23	≥ 100	94 ± 15	126 ± 11	148 ± 3	pronounced activity	–	–	–	–	–
CCCCCCCCCC[N+](C)(C)CCCNCc1c(O)cc2c(c1O)-c1cc(ccc1O)C1NC(=O)C3NC(=O)C4NC(=O)C(Cc5ccc(c(Cl)c5)Oc5cc3cc(c5O)Oc3ccc(cc3Cl)C(O)C(NC1=O)C(=O)NC2C(=O)NCCO)NC(=O)C(N)c1ccc(O)c(c1)Oc1cc(O)cc4c1 (centres unmarked) [Compound 36]	2.1 ± 0.14	4.2 ± 2.47	–	–	12 ± 0.1	73 ± 34	≥ 100	–	–	≥ 5	1.9	≧20-50 μM	> 200
CCCCCCCCCCNCc1c(O)cc2c(c1O)-c1cc(ccc1O)C1NC(=O)C3NC(=O)C4NC(=O)C(Cc5ccc(c(Cl)c5)Oc5cc3cc(c5O)Oc3ccc(cc3Cl)C(O)C(NC1=O)C(=O)NC2C(=O)NC)NC(=O)C(NC(=O)C(N)CCCCN)c1ccc(O)c(c1)Oc1cc(O)cc4c1 (centres unmarked) [Compound 24]	4	6	–	–	12 ± 6	41 ± 8	46 ± 8	–	–	1.2	1.9	≧5 μM	87
NC1C(=O)NC2Cc3ccc(c(Cl)c3)Oc3cc4cc(c3O)Oc3ccc(cc3Cl)C(O)C3NC(=O)C(NC(=O)C4NC(=O)C(NC2=O)c2cc(O)cc(c2)Oc2cc1ccc2O)c1ccc(O)c(c1)-c1c(cc(O)c(CNC2C4CC5CC(C4)CC2C5)c1O)C(C(=O)NC1C2CC4CC(C2)CC1C4)NC3=O (centres unmarked) [Compound 52]	2.5 ± 0.7	3.5 ± 2.1	14	> 50	202 ± 68	> 250	> 250	–	–	–	–	–	–
CCCCCCCCCC[N+](C)(C)CCCNCc1c(O)cc2c(c1O)-c1cc(ccc1O)C1NC(=O)C3NC(=O)C4NC(=O)C(Cc5ccc(c(Cl)c5)Oc5cc3cc(c5O)Oc3ccc(cc3Cl)C(O)C(NC1=O)C(=O)NC2C(=O)O)NC(=O)C(N)c1ccc(O)c(c1)Oc1cc(O)cc4c1 (centres unmarked) [Compound 33]	2.2	7.5 ± 0.7	–	–	51 ± 26	65 ± 1	74 ± 5	–	–	≥ 5	2.4	5 to 50 µM	≥ 200
CCCCCCCCCCCCCCCCCCNCc1c(O)cc2c(c1O)-c1cc(ccc1O)C1NC(=O)C3NC(=O)C(CC(N)=O)NC(=O)C(NC(=O)C(CC(C)C)NC)C(O)c4ccc(c(Cl)c4)Oc4cc3cc(c4OC3OC(CO)C(O)C(O)C3OC3CC(C)(N)C(O)C(C)O3)Oc3ccc(cc3)C(OC3CC(C)(N)C(O)C(C)O3)C(NC1=O)C(=O)NC2C(=O)O (centres unmarked) [Compound 63]	–	–	3.4	15	–	–	–	active	–	–	–	–	–
CNC(CC(C)C)C(=O)NC1C(=O)NC(CC(N)=O)C(=O)NC2C(=O)NC3C(=O)NC(C(=O)NC(C(=O)NCc4ccc(F)cc4)c4cc(O)cc(O)c4-c4cc3ccc4O)C(O)c3ccc(cc3)Oc3cc2cc(c3O)Oc2ccc(cc2Cl)C1O (centres unmarked) [Compound 100]	41.7 ± 20.2	> 125	20	> 100	> 250	> 250	> 250	pronounced activity	–	–	–	–	–
CNC(=O)C1NC(=O)C2NC(=O)C(NC(=O)C3NC(=O)C(CC(N)=O)NC(=O)C(NC(=O)C(CC(C)C)N(C)C(=O)OC(C)(C)C)C(O)c4ccc(c(Cl)c4)Oc4cc3cc(c4O)Oc3ccc(cc3)C2O)c2ccc(O)c(c2)-c2c1cc(O)c(CN1CCN(Cc3ccc(-c4ccccc4)cc3)CC1)c2O (centres unmarked) [Compound 7]	4	3.5 ± 0.7	3.6	> 50	84 ± 22	> 100	> 100	pronounced activity	pronounced activity	1	0.87	≧20 μM	> 50
NC(=O)CC1NC(=O)C(N)C(O)c2ccc(c(Cl)c2)Oc2cc3cc(c2O)Oc2ccc(cc2)C(O)C2NC(=O)C(NC(=O)C3NC1=O)c1ccc(O)c(c1)-c1c(O)cc(O)cc1C(C(=O)NCc1ccc(F)cc1)NC2=O (centres unmarked) [Compound 106]	27	30	74	> 300	–	–	–	–	–	–	–	–	–
CCCCCCCCCCNC(=O)C(N)CCCCNCc1c(O)cc2c(c1O)-c1cc(ccc1O)C1NC(=O)C3NC(=O)C4NC(=O)C(Cc5ccc(c(Cl)c5)Oc5cc3cc(c5O)Oc3ccc(cc3Cl)C(O)C(NC1=O)C(=O)NC2C(=O)NCCCN(C)C)NC(=O)C(N)c1ccc(O)c(c1)Oc1cc(O)cc4c1 (centres unmarked) [Compound 16]	3.5 ± 0.7	5.5 ± 2.1	–	–	19 ± 5	76 ± 8	389 ± 99	–	–	2.5	2.4	≧5-50 μM	137
